Results as given in patent US20260109732A1, “LIPID AMINES” (ModernaTX, Inc., priority 2021, published 2026).
Counter-ions that a name gives are not always drawn.

How the values were obtained:
[1] = Diameter and PDI from DLS measurements of mRNA nanoparticles with lipid amines; assay type: physicochemical; conditions: CFTR mRNA nanoparticle with lipid amine
Protocol: (§1) Lipids are dissolved in ethanol at a concentration of 24 mg/mL and molar ratios of 49.0:11.2:39.3:0.5 (IL1:DSPC:cholesterol:PEG-DMG-2K) and mixed with the acidification buffer (45 mM acetate buffer at pH 4). The lipid solution and acidification buffer are mixed using a multi-inlet vortex mixer at a 3:7 volumetric ratio of lipid:buffer for mixer 1 and mixer 2 and a 1:3 volumetric ratio of lipid:buffer (25% ethanol) for mixer 3. After a 5 second residence time, the resulting nanoparticles are mixed with 55 mM sodium acetate at pH 5.6 at a volumetric ratio of 5:7 of nanoparticle:buffer. See Table 2a for mixing parameters. The resulting dilute nanoparticles are then buffer exchanged and concentrated using tangential flow filtration (TFF) into a final buffer containing 5 mM sodium acetate pH 5.0. Then a 70% sucrose solution in 5 mM acetate buffer at pH 5 is subsequently added.
(§2) The resulting nanoparticles at a lipid concentration of 7.33 mg/mL in 5 mM acetate (pH 5) and 75 g/L sucrose are mixed with mRNA (luciferease or CFTR) at a concentration of 0.625 mg/mL in 42.5 mM sodium acetate pH 5.0, with N:P of 4.93. The nanoparticle solution and nanoparticles are mixed using a multi-inlet vortex mixer at a 3:2 volumetric ratio of nanoparticle:mRNA. Once loaded with mRNA, these intermediate nanoparticles undergo a 300 second residence time prior addition of neutralization buffer containing 120 mM TRIS pH 8.12 at a volumetric ratio of 5:1 of nanoparticle:buffer.
(§3) For HeLa studies evaluating luciferase protein expression, PEG-DMG-2K dissolved in a 20 mM TRIS buffer (pH 7.5) is added to the neutralized intermediate nanoparticle solution at a ratio of 1:6, bringing the solution to the final molar ratios of IL1:DSPC:cholesterol:PEG-DMG-2K of 48.5:11.1:38.9:1.5%. This nanoparticle formulation is then modified with lipid amines. In a typical example, nanoparticle formulation at a concentration of 0.18 mg/mL mRNA and a 0.56 mL volume is modified with lipid amine SA50 (467.2 nmol) prepared in buffer containing 20 mM TRIS, 14.3 mM sodium acetate, 32 g/L sucrose and 140 mM NaCl-pH 7.5 at a volumetric ratio of 1:1 of nanoparticle:buffer.
(§4) For HeLa studies evaluating CFTR protein expression, the intermediate nanoparticle formulation (1 mL, 0.415 mg mRNA) is mixed with a buffer containing 20 mM TRIS (pH 7.5), 0.9 mg/mL PEG-DMG-2K and lipid amine SA50 (647.1 nmol) at a volumetric ratio of 6:1 of nanoparticle:buffer. The resulting nanoparticle suspension undergoes concentration using a centrifugal filtration device (100 kDa molecular weight cut-off) and is diluted in running buffer (20 mM TRIS, 14.3 mM sodium acetate, and 32 g/L sucrose, pH 7.5) with a 300 mM NaCl solution to a final buffer matrix containing 70 mM NaCl.
(§5) Both resulting nanoparticle suspensions are filtered through a 0.8/0.2 μm capsule filter and filled into glass vials at an mRNA strength of about 0.1-1 mg/mLBliophysical data (Diameter and PDI from DLS measurements and Encapsualtion using Ribogreen assay) for both luciferase and CFTR mRNA nanoparticles with lipid amines is shown in Tables 2c and d, respectively.

[2] = Encapsulation of mRNA nanoparticles with lipid amines using Ribogreen assay; assay type: physicochemical; conditions: CFTR mRNA nanoparticle with lipid amine
Protocol: as §1, §2, §3, §4, §5

HeLa cells = test: CFTR Protein Expression Assay in HeLa Cells; assay type: cell-based, Human; conditions: LNPs encapsulating CFTR mRNA, N=4 wells; 5 h serum-free then 24 h; immunofluorescence vs PBS control
Protocol: as §4
Lipid nanoparticle compositions were prepared in a manner analogous to that in example 2. To evaluate LNP cellular uptake and protein expression In Vitro, HeLa cells from ATCC.org (ATCC CCL-2) are used. The cells are cultured in complete Minimum Essential Medium (MVEM) and are plated in 96 well Cell Carrier Ultra plate with PDL coated surface (PerkinElmer) prior to running an experiment.
Buffer control (PBS) and LNPs encapsulating cystic fibrosis transmembrane conductance regulator (CFTR) mRNA were dosed with MEM media in the absence of serum (N=4 replicate wells). LNP transfected cells were incubated for 5 h, followed by media removal and supplementation with complete MEM media. Cells were further incubated in complete MEM media overnight (24 h).
Following 24 hr incubation, the cells were fixed with PFA and processed for immunofluorescence (IF) using an anti-CFTR rabbit monoclonal antibody. Briefly, the cells were permeabilized with 0.5% TX-100 for 10 min, blocked with 3% bovine serum albumin (BSA)+PBST for 1 hr at room temperature, and incubated with primary anti-CFTR monoclonal antibody overnight at 4° C. Following primary antibody incubation, the cells were incubated with Alexa 488 conjugated secondary antibody for 30 mi and stained with DAPI and HCS CellMask Blue stain. Between different incubation steps the cells were either washed with PBS or PBST. Cells were imaged using Opera Phoenix spinning disk confocal microscope (PerkinElmer), and CFTR protein expression was detected using the 488 nm channel. The image analysis was performed in Harmony 4.9, with main analysis output being CFTR intensity per cell. The results shown in Table 3b show fold-change in CFTR signal intensity per cell compared to buffer (PBS) control (NA=not available).

Compound | Diameter (nm) [1] [nm] | PDI [1] | % Encapsulation (Ribogreen) [2] [%] | Average fold-change in CFTR signal intensity per cell compared to buffer control ± standard deviation (HeLa cells) [fold-change]
CC(C)CCC[C@@H](C)[C@H]1CC[C@H]2[C@@H]3CC=C4C[C@@H](OC(=O)CN(CCCN)CCCCNCCCN)CC[C@]4(C)[C@H]3CC[C@]12C (stereo in doubt) [SA65, ((3S,8S,9S,10R,13R,14S,17R)-10,13-dimethyl-17-((R)-6-methylheptan-2-yl)-2,3,4,7,8,9,10,11,12,13,14,15,16,17-tetradecahydro-1H-cyclopenta[a]phenanthren-3-yl N-(3-aminopropyl)-N-(4-((3-aminopropyl)amino)butyl)glycinatetetrahydrochloride] | 78.0 | 0.14 | 99.6 | 5.9 ± 0.5
CC(C)CCC[C@@H](C)[C@H]1CC[C@H]2[C@@H]3CC=C4C[C@@H](OC(=O)CC(=O)N(CCCN(C)C)CCCN(C)C)CC[C@]4(C)[C@H]3CC[C@]12C.Cl.Cl [SA50, (3S,8S,9S,10R,13R,14S,17R)-10,13-Dimethyl-17-((R)-6-methylheptan-2-yl)-2,3,4,7,8,9,10,11,12,13,14,15,16,17-tetradecahydro-1H-cyclopenta[a]phenanthren-3-yl 3-(bis(3-(dimethylamino)propyl)amino)-3-oxopropanoate dihydrochloride] | 77.1 | 0.11 | 99.3 | 7.1 ± 0.4
CC(C)CCC[C@@H](C)[C@H]1CC[C@H]2[C@@H]3CC=C4C[C@@H](OC(=O)CCCC(=O)N(CCCN(C)C)CCCN(C)C)CC[C@]4(C)[C@H]3CC[C@]12C.Cl.Cl [SA51, (3S,8S,9S,10R,13R,14S,17R)-10,13-Dimethyl-17-((R)-6-methylheptan-2-yl)-2,3,4,7,8,9,10,11,12,13,14,15,16,17-tetradecahydro-1H-cyclopenta[a]phenanthren-3-yl 5-(bis(3-(dimethylamino)propyl)amino)-5-oxopentanoate dihydrochloride] | 74.3 | 0.15 | 98.4 | 6.5 ± 0.4
CC(C)CCC[C@@H](C)[C@H]1CC[C@H]2[C@@H]3CC=C4C[C@@H](OC(=O)CCCC(=O)N(CCCN)CCCCNCCCN)CC[C@]4(C)[C@H]3CC[C@]12C.Cl.Cl.Cl [SA58, (3S,8S,9S,10R,13R,14S,17R)-10,13-Dimethyl-17-((R)-6-methylheptan-2-yl)-2,3,4,7,8,9,10,11,12,13,14,15,16,17-tetradecahydro-1H-cyclopenta[a]phenanthren-3-yl 5-((3-aminopropyl)(4-((3-aminopropyl)amino)butyl)amino)-5-oxopentanoate trihydrochloride] | 71.6 | 0.10 | 99.6 | 4.5 ± 0.3
CC(C)CCC[C@@H](C)[C@H]1CC[C@H]2[C@@H]3CC=C4C[C@@H](OC(=O)N(CCCCCCCCN(C)C)CCCN(C)C)CC[C@]4(C)[C@H]3CC[C@]12C [SA64, (3S,8S,9S,10R,13R,14S,17R)-10,13-dimethyl-17-((R)-6-methylheptan-2-yl)-2,3,4,7,8,9,10,11,12,13,14,15,16,17-tetradecahydro-1H-cyclopenta[a]phenanthren-3-yl (8-(dimethylamino)octyl)(3-(dimethylamino)propyl)carbamate] | 67.8 | 0.09 | 99.1 | 9.1 ± 0.6
CC(C)CCC[C@@H](C)[C@H]1CC[C@H]2[C@@H]3CC=C4C[C@@H](OC(=O)N(CCCCOCCCN(C)C)CCCN(C)C)CC[C@]4(C)[C@H]3CC[C@]12C [SA67, (3S,8S,9S,10R,13R,14S,17R)-10,13-dimethyl-17-((R)-6-methylheptan-2-yl)-2,3,4,7,8,9,10,11,12,13,14,15,16,17-tetradecahydro-1H-cyclopenta[a]phenanthren-3-yl (4-(3-(dimethylamino)propoxy)butyl)(3-(dimethylamino)propyl)carbamate] | 72.8 | 0.10 | 99.2 | 7.7 ± 0.7
CC(C)CCC[C@@H](C)[C@H]1CC[C@H]2[C@@H]3CC=C4C[C@@H](OC(=O)N(CCCCN(C)CCCN(C)C)CCCN(C)C)CC[C@]4(C)[C@H]3CC[C@]12C [SA68, (3S,8S,9S,10R,13R,14S,17R)-10,13-dimethyl-17-((R)-6-methylheptan-2-yl)-2,3,4,7,8,9,10,11,12,13,14,15,16,17-tetradecahydro-1H-cyclopenta[a]phenanthren-3-yl (3-(dimethylamino)propyl)(4-((3-(dimethylamino)propyl)(methyl)amino)butyl)carbamate] | 74.6 | 0.12 | 99.2 | 8.9 ± 0.4
CC(C)CCC[C@@H](C)[C@H]1CC[C@H]2[C@@H]3CC=C4C[C@@H](OC(=O)[C@H](C)N(CCCN)CCCCNCCCN)CC[C@]4(C)[C@H]3CC[C@]12C [SA73, (3S,8S,9S,10R,13R,14S,17R)-10,13-Dimethyl-17-((R)-6-methylheptan-2-yl)-2,3,4,7,8,9,10,11,12,13,14,15,16,17-tetradecahydro-1H-cyclopenta[a]phenanthren-3-yl N-(3-aminopropyl)-N-(4-((3-aminopropyl)amino)butyl)alaninate trihydrochloride] | 92.8 | 0.16 | 100 | 9.4 ± 0.6
